This note sets out measurements from publication PMC12682947, “Identification of New KCNT1‐Epilepsy Drugs by In Silico, Cell, and Drosophila Modeling” (Annals of Neurology, 2025).

Each structure is given as a SMILES string. Where a name gives a salt, the structure may show the parent alone.

Broadly, the inhibition is the relative decrease from the control value, in per cent. In general, IC50 refers to the concentration needed to halve the response being measured.

This assay has as its target T1, WT and mutant human KCNT1 channels (Homo sapiens, UniProt Q5JUK3).
T1 sequence (Q5JUK3 1-1230): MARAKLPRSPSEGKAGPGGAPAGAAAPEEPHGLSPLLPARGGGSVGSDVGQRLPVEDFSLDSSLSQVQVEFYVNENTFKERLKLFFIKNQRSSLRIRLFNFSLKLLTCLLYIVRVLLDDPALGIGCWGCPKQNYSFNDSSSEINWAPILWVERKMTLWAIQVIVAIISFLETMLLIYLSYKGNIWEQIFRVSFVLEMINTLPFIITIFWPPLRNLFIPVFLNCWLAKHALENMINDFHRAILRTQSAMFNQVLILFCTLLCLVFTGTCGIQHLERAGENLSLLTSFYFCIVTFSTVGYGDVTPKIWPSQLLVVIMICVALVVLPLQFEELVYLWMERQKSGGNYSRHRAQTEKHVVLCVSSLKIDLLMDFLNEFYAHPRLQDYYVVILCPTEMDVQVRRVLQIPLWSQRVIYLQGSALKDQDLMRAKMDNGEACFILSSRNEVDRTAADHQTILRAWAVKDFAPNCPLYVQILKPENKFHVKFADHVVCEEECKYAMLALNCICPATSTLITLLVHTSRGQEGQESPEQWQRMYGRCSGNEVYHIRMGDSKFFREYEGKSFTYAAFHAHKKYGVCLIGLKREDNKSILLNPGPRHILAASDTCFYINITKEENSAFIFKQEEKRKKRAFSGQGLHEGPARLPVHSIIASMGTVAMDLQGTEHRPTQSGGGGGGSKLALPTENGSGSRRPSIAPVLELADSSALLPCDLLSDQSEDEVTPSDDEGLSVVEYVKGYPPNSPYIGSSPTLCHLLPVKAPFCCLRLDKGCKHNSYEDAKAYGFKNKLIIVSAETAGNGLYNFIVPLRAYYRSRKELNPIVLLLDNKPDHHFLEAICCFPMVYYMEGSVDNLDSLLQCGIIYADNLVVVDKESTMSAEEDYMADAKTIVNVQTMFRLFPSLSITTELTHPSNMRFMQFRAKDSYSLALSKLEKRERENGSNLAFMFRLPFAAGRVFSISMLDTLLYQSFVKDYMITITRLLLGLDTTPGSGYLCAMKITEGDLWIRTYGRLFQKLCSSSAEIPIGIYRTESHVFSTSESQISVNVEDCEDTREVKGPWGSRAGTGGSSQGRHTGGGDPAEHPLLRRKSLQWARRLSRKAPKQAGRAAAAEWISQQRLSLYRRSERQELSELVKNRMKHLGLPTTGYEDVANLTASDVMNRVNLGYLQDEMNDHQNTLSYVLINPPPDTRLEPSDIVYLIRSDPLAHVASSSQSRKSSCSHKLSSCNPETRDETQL
The assay is described as follows: Inside-out patch clamp, statements pooled over WT and mutant channels. The assay is classed as cell-based. Particulars: inside-out patches; for inhibition at 0.25 µM: 250 nM. How it is done:
The CHO cells were cultured in Dulbecco's modified Eagle's Medium (ThermoFisher, UK) supplemented with 10% (v/v) fetal bovine serum, 50 U/ml penicillin and 0.05 mg/ml streptomycin, and incubated at 37°C in 5% CO2 atmosphere. For whole cell recording of WT/Y796H KCNT1, CHO cells were transiently co‐transfected with concatemeric WT/Y796H and EYFP, as described previously.[29] For electrophysiological experiments, cells were plated onto borosilicate glass cover slips and used 2 to 4 days later. Human embryonic kidney 293T cells (HEK293T) were cultured in the same manner, but with medium supplemented with 2 mM L‐glutamine, and 1% (v/v) nonessential amino acids. For excised inside‐out recording of homomeric WT or mutant YFP‐tagged KCNT1, HEK293T cells plated on glass cover slips were transfected using Attractene Transfection Reagent (Qiagen, Germany) according to the manufacturer's instructions and used 2 to 3 days later.
Inside‐out patch clamp recordings were made at room temperature (23°C) from transiently transfected HEK293T cells, as described previously.[11] The pipette solution contained, in mM, 140 NaCl, 4 KCl, 2 CaCl2, 2 MgCl2, and 10 HEPES adjusted to pH 7.4 with NaOH. After achieving the inside‐out configuration, the intracellular face of the membrane was constantly perfused with a solution containing, in mM, 35 NaCl, 110 KCl, 0.2 EGTA, and 10 HEPES adjusted to pH 7.3 with KOH. Drug stock solutions of 5 to 20 mM in DMSO were first diluted in ethanol (1:10) and then in electrophysiological solution. KCNT1 currents were recorded using 2 voltage protocols, depending on the number of active channels in the patch before drug application. Macroscopic currents (number of active channels > 15) were recorded in response to 100 ms voltage ramps between −120 and 120 mV applied every 2 seconds from a holding potential of −78 mV. The average current amplitudes between 0 and 40 mV were used for the analyses and constructing the concentration‐response curves. With a lower number of active channels in the patch (3–15), current traces were recorded in response to 15‐second voltage steps to −20, 0, and 20 mV from a holding potential of −78 mV. Currents recorded at each voltage and each drug concentration were averaged over the duration of the trace and normalized to the average amplitudes of the corresponding current traces in drug‐free solution. The normalized data for all 3 voltage steps were then averaged for each drug concentration and used to build the concentration‐response curves (see Supplementary Fig S3). To determine the IC50, data were fitted with the Hill equation, as described previously.[11] Single channel data were analyzed using Ana software developed by Dr Michael Pusch (Istituto di Biofisica, Genova, Italy; http://users.ge.ibf.cnr.it/pusch/programs-mik.htm). […]

As to `O=C(OCCN1CCN(c2cccc(C(F)(F)F)c2)CC1)c1ccccc1Nc1ccnc2cc(C(F)(F)F)ccc12` [antrafenine], the inhibition at 0.25 µM was 80 to 90%. In addition, the inhibition at 0.3 µM (300 nM, read-out: inhibition of single KCNT1 channels) is ~90%. The IC50 (read-out: direct IC50 on single KCNT1 channels) was ~0.01 µM.

In the case of `Cc1c(O)cccc1C(=O)N[C@@H](CSc1ccccc1)[C@H](O)CN1C[C@H]2CCCC[C@H]2C[C@H]1C(=O)NC(C)(C)C` [nelfinavir mesylate], the inhibition at 0.25 µM fell in the range of 80 to 90%.
